Source: patent US8410170B2, “Use of isothiocyanates compounds in treating prostatic diseases and skin cancer” (Wuxi JC Pharmaceutical Technology Co., Ltd., priority 2005, dated 2013)

Tested on: non-bacterial prostatitis
Assay: Therapeutic effects on non-bacterial prostatitis (Xiaozhiling injection into prostate)
Type: in vivo, SD rats
Settings: for Average of Body Weight / Average Volume of Prostate / Average Weight of Prostate / Inhibition of Organ-coefficient / Organ Coefficient: 5 weeks; for Bleeding: no. of animals with score 0 / Bleeding: no. of animals with score + / Bleeding: no. of animals with score ++ / Bleeding: no. of animals with score +++ / Chronic Inflammatory Infiltration: no. of animals with score 0 / Chronic Inflammatory Infiltration: no. of animals with score + / Chronic Inflammatory Infiltration: no. of animals with score ++ / Chronic Inflammatory Infiltration: no. of animals with score +++ / Congestion: no. of animals with score 0 / Congestion: no. of animals with score + / Congestion: no. of animals with score ++ / Congestion: no. of animals with score +++ / Edema: no. of animals with score 0 / Edema: no. of animals with score + / Edema: no. of animals with score ++ / Edema: no. of animals with score +++ / Fibrous Exudation: no. of animals with score 0 / Fibrous Exudation: no. of animals with score + / Fibrous Exudation: no. of animals with score ++ / Fibrous Exudation: no. of animals with score +++ / Histopathological score of prostatitis, Overall Average X ± SD / Hyperblastosis: no. of animals with score 0 / Hyperblastosis: no. of animals with score + / Hyperblastosis: no. of animals with score ++ / Hyperblastosis: no. of animals with score +++ / Inflammatory Infiltration: no. of animals with score 0 / Inflammatory Infiltration: no. of animals with score + / Inflammatory Infiltration: no. of animals with score ++ / Inflammatory Infiltration: no. of animals with score +++: 9 animals; for urine, 1 h Period / urine, 2 h Period / urine, 3 h Period: last dosing day
Description: Fifty-five male SD rats were randomly divided into 6 groups, 9 each, except the negative control group for which 10 animals were used. All animals from group 1 to 6 were anesthetized by injection of ketamine under sterile conditions and incised around 1.5 cm with a sterilized surgery scalpel at middle of abdomen. Animals in Group 1 were injected penicillin to prevent infection, and given distill water, 10 ml/kg, once a day, 5 times a week for 5 weeks. Groups from 2 to 6 injected 25% Xiaozhiling into left and right lobes of prostate, 0.1 ml for each lobe and sew the muscle and skin with #1 silk thread. The animals were then given penicillin to prevent infectious. Group 2 was served as negative control group in which animals were treated with distill water by gavage 24 hrs after the Xiaozhiling injection, once a day, 5 times a week for 5 weeks. Group 3 was served as positive control group in which animals were treated with GENURIN by gavage 24 hrs after the Xiaozhiling injection at dose of 60 mg/kg, once a day, 5 times a week (escaping weekend) for 5 weeks. […] On the last dosing day, urine samples from different groups that covered periods of 1, 2 and 3 hrs were collected.
Twenty-four hrs after the last dose, the animals were euthanized and weighed. Volume and weight of prostate were measured. The averages of the prostate weight/volume and organ coefficient (average weight of prostate/average of body weight) were calculated, and statistical analysis performed (t test).
Prostate tissues of animals from different groups were embedded with paraffin. The tissue sections were stained with H&E for histpathological examination by an anatomical pathologist.

Structure (SMILES): S=C=NCCc1ccccc1 [PEITC, phenethyl isothiocyanate]
- Average of Body Weight (PEITC 1 mg/kg gavage (Example 13-11)): 377 ± 39.1 g
- Average Volume of Prostate (PEITC 1 mg/kg gavage): 0.78 ± 0.16 cm^3
- Average Weight of Prostate (PEITC 1 mg/kg gavage): 0.7 ± 0.15 g
- Inhibition of Organ-coefficient (PEITC 1 mg/kg gavage): 28.46%
- Organ Coefficient (PEITC 1 mg/kg gavage): 0.186 ± 0.03 %
- Bleeding: no. of animals with score 0 (PEITC 1 mg/kg): 7
- Bleeding: no. of animals with score + (PEITC 1 mg/kg): 2
- Bleeding: no. of animals with score ++ (PEITC 1 mg/kg): 0
- Bleeding: no. of animals with score +++ (PEITC 1 mg/kg): 0
- Chronic Inflammatory Infiltration: no. of animals with score 0 (PEITC 1 mg/kg): 9
- Chronic Inflammatory Infiltration: no. of animals with score + (PEITC 1 mg/kg): 0
- Chronic Inflammatory Infiltration: no. of animals with score ++ (PEITC 1 mg/kg): 0
- Chronic Inflammatory Infiltration: no. of animals with score +++ (PEITC 1 mg/kg): 0
- Congestion: no. of animals with score 0 (PEITC 1 mg/kg): 3
- Congestion: no. of animals with score + (PEITC 1 mg/kg): 6
- Congestion: no. of animals with score ++ (PEITC 1 mg/kg): 0
- Congestion: no. of animals with score +++ (PEITC 1 mg/kg): 0
- Edema: no. of animals with score 0 (PEITC 1 mg/kg): 3
- Edema: no. of animals with score + (PEITC 1 mg/kg): 6
- Edema: no. of animals with score ++ (PEITC 1 mg/kg): 0
- Edema: no. of animals with score +++ (PEITC 1 mg/kg): 0
- Fibrous Exudation: no. of animals with score 0 (PEITC 1 mg/kg): 5
- Fibrous Exudation: no. of animals with score + (PEITC 1 mg/kg): 4
- Fibrous Exudation: no. of animals with score ++ (PEITC 1 mg/kg): 0
- Fibrous Exudation: no. of animals with score +++ (PEITC 1 mg/kg): 0
- Histopathological score of prostatitis, Overall Average X ± SD (PEITC 1 mg/kg): 1.83 ± 1.06
- Hyperblastosis: no. of animals with score 0 (PEITC 1 mg/kg): 7
- Hyperblastosis: no. of animals with score + (PEITC 1 mg/kg): 2
- Hyperblastosis: no. of animals with score ++ (PEITC 1 mg/kg): 0
- Hyperblastosis: no. of animals with score +++ (PEITC 1 mg/kg): 0
- Inflammatory Infiltration: no. of animals with score 0 (PEITC 1 mg/kg): 9
- Inflammatory Infiltration: no. of animals with score + (PEITC 1 mg/kg): 0
- Inflammatory Infiltration: no. of animals with score ++ (PEITC 1 mg/kg): 0
- Inflammatory Infiltration: no. of animals with score +++ (PEITC 1 mg/kg): 0
- congestion, edema, fibroid and leukocyte infiltration versus untreated prostatitis animals (slide) (PEITC 1 mg/kg, FIG. 7.5): less severe
- urine, 1 h Period (PEITC 1 mg/kg): 5.5 ± 1.0 mL
- urine, 2 h Period (PEITC 1 mg/kg): 7.0 ± 0.7 mL
- urine, 3 h Period (PEITC 1 mg/kg): 7.9 ± 1.0 mL
- Average of Body Weight (PEITC 2 mg/kg gavage (Example 13-11)): 360 ± 24.8 g
- Average Volume of Prostate (PEITC 2 mg/kg gavage): 0.82 ± 0.13 cm^3
- Average Weight of Prostate (PEITC 2 mg/kg gavage): 0.70 ± 0.12 g
- Inhibition of Organ-coefficient (PEITC 2 mg/kg gavage): 27.69%
- Organ Coefficient (PEITC 2 mg/kg gavage): 0.188 ± 0.03 %
- Bleeding: no. of animals with score 0 (PEITC 2 mg/kg): 8
- Bleeding: no. of animals with score + (PEITC 2 mg/kg): 1
- Bleeding: no. of animals with score ++ (PEITC 2 mg/kg): 0
- Bleeding: no. of animals with score +++ (PEITC 2 mg/kg): 0
- Chronic Inflammatory Infiltration: no. of animals with score 0 (PEITC 2 mg/kg): 8
- Chronic Inflammatory Infiltration: no. of animals with score + (PEITC 2 mg/kg): 0
- Chronic Inflammatory Infiltration: no. of animals with score ++ (PEITC 2 mg/kg): 1
- Chronic Inflammatory Infiltration: no. of animals with score +++ (PEITC 2 mg/kg): 0
- Congestion: no. of animals with score 0 (PEITC 2 mg/kg): 4
- Congestion: no. of animals with score + (PEITC 2 mg/kg): 5
- Congestion: no. of animals with score ++ (PEITC 2 mg/kg): 0
- Congestion: no. of animals with score +++ (PEITC 2 mg/kg): 0
- Edema: no. of animals with score 0 (PEITC 2 mg/kg): 6
- Edema: no. of animals with score + (PEITC 2 mg/kg): 3
- Edema: no. of animals with score ++ (PEITC 2 mg/kg): 0
- Edema: no. of animals with score +++ (PEITC 2 mg/kg): 0
- Fibrous Exudation: no. of animals with score 0 (PEITC 2 mg/kg): 5
- Fibrous Exudation: no. of animals with score + (PEITC 2 mg/kg): 4
- Fibrous Exudation: no. of animals with score ++ (PEITC 2 mg/kg): 0
- Fibrous Exudation: no. of animals with score +++ (PEITC 2 mg/kg): 0
- Histopathological score of prostatitis, Overall Average X ± SD (PEITC 2 mg/kg): 2.16 ± 1.52
- Hyperblastosis: no. of animals with score 0 (PEITC 2 mg/kg): 7
- Hyperblastosis: no. of animals with score + (PEITC 2 mg/kg): 2
- Hyperblastosis: no. of animals with score ++ (PEITC 2 mg/kg): 0
- Hyperblastosis: no. of animals with score +++ (PEITC 2 mg/kg): 0
- Inflammatory Infiltration: no. of animals with score 0 (PEITC 2 mg/kg): 6
- Inflammatory Infiltration: no. of animals with score + (PEITC 2 mg/kg): 3
- Inflammatory Infiltration: no. of animals with score ++ (PEITC 2 mg/kg): 0
- Inflammatory Infiltration: no. of animals with score +++ (PEITC 2 mg/kg): 0
- urine, 1 h Period (PEITC 2 mg/kg): 6.6 ± 2.1 mL
- urine, 2 h Period (PEITC 2 mg/kg): 8.7 ± 1.7 mL
- urine, 3 h Period (PEITC 2 mg/kg): 9.2 ± 2.7 mL
- Average of Body Weight (PEITC 4 mg/kg gavage (Example 13-11)): 370 ± 24.8 g
- Average Volume of Prostate (PEITC 4 mg/kg gavage): 0.78 ± 0.10 cm^3
- Average Weight of Prostate (PEITC 4 mg/kg gavage): 0.72 ± 0.16 g
- Inhibition of Organ-coefficient (PEITC 4 mg/kg gavage): 26.15%
- Organ Coefficient (PEITC 4 mg/kg gavage): 0.192 ± 0.03 %
- Bleeding: no. of animals with score 0 (PEITC 4 mg/kg): 6
- Bleeding: no. of animals with score + (PEITC 4 mg/kg): 3
- Bleeding: no. of animals with score ++ (PEITC 4 mg/kg): 0
- Bleeding: no. of animals with score +++ (PEITC 4 mg/kg): 0
- Chronic Inflammatory Infiltration: no. of animals with score 0 (PEITC 4 mg/kg): 9
- Chronic Inflammatory Infiltration: no. of animals with score + (PEITC 4 mg/kg): 0
- Chronic Inflammatory Infiltration: no. of animals with score ++ (PEITC 4 mg/kg): 0
- Chronic Inflammatory Infiltration: no. of animals with score +++ (PEITC 4 mg/kg): 0
- Congestion: no. of animals with score 0 (PEITC 4 mg/kg): 7
- Congestion: no. of animals with score + (PEITC 4 mg/kg): 2
- Congestion: no. of animals with score ++ (PEITC 4 mg/kg): 0
- Congestion: no. of animals with score +++ (PEITC 4 mg/kg): 0
- Edema: no. of animals with score 0 (PEITC 4 mg/kg): 5
- Edema: no. of animals with score + (PEITC 4 mg/kg): 4
- Edema: no. of animals with score ++ (PEITC 4 mg/kg): 0
- Edema: no. of animals with score +++ (PEITC 4 mg/kg): 0
- Fibrous Exudation: no. of animals with score 0 (PEITC 4 mg/kg): 4
- Fibrous Exudation: no. of animals with score + (PEITC 4 mg/kg): 4
- Fibrous Exudation: no. of animals with score ++ (PEITC 4 mg/kg): 1
- Fibrous Exudation: no. of animals with score +++ (PEITC 4 mg/kg): 0
- Histopathological score of prostatitis, Overall Average X ± SD (PEITC 4 mg/kg): 1.72 ± 0.79
- Hyperblastosis: no. of animals with score 0 (PEITC 4 mg/kg): 9
- Hyperblastosis: no. of animals with score + (PEITC 4 mg/kg): 0
- Hyperblastosis: no. of animals with score ++ (PEITC 4 mg/kg): 0
- Hyperblastosis: no. of animals with score +++ (PEITC 4 mg/kg): 0
- Inflammatory Infiltration: no. of animals with score 0 (PEITC 4 mg/kg): 7
- Inflammatory Infiltration: no. of animals with score + (PEITC 4 mg/kg): 2
- Inflammatory Infiltration: no. of animals with score ++ (PEITC 4 mg/kg): 0
- Inflammatory Infiltration: no. of animals with score +++ (PEITC 4 mg/kg): 0
- histopathological scores versus untreated prostatitis animals (slide) (PEITC 4 mg/kg, FIG. 7.3): less severe
- urine, 1 h Period (PEITC 4 mg/kg): 5.7 ± 2.2 mL
- urine, 2 h Period (PEITC 4 mg/kg): 9.4 ± 1.5 mL
- urine, 3 h Period (PEITC 4 mg/kg): 10.4 ± 1.9 mL
